Laboratory results: patent publication US20140000884A1, “PETROLEUM RECOVERY PROCESS AND SYSTEM” (Shell Oil Company, priority 2012, published 2014)

Assay: Dynamic viscosity of crude/dimethyl sulfide blends (rheometer, closed cup)
Type: physicochemical
Protocol: The quality of dimethyl sulfide as an oil recovery agent based on the crude oil viscosity lowering properties of dimethyl sulfide was evaluated. Three crude oils having widely disparate viscosity characteristics—an African Waxy crude, a Middle Eastern asphaltic crude, and a Canadian asphaltic crude—were blended with dimethyl sulfide.
A control sample of each crude was prepared containing no dimethyl sulfide, and samples of each crude were prepared and blended with dimethyl sulfide to prepare crude samples containing increasing concentrations of dimethyl sulfide. Each sample of each of the crudes was heated to 60° C. to dissolve any waxes therein and to permit weighing of a homogeneous liquid, weighed, allowed to cool overnight, then blended with a selected quantity of dimethyl sulfide. The samples of the crude/dimethyl sulfide blend were then heated to 60° C. and mixed to ensure homogeneous blending of the dimethyl sulfide in the samples. Absolute (dynamic) viscosity measurements of each of the samples were taken using a rheometer and a closed cup sensor assembly. Viscosity measurements of each of the samples of the West African waxy crude and the Middle Eastern asphaltic crude were taken at 20° C., 40° C., 60° C., 80° C., and then again at 20° C. after cooling from 80° C., where the second measurement at 20° C. is taken to measure the viscosity without the presence of waxes since wax formation occurs slowly enough to permit viscosity measurement at 20° C. without the presence of wax. Viscosity measurements of each of the samples of the Canadian asphaltic crude were taken at 5° C., 10° C., 20° C., 40° C., 60° C., 80° C.

Viscosity (DMS 1.43 wt. %, 20° C.): 212525 mPa s
Viscosity (DMS 1.43 wt. %, 40° C.): 14721 mPa s
Viscosity (DMS 1.43 wt. %, 60° C.): 2209 mPa s
Viscosity (DMS 1.43 wt. %, 80° C.): 538 mPa s
Viscosity (DMS 2.07 wt. %, 20° C.): 134880 mPa s
Viscosity (DMS 2.07 wt. %, 40° C.): 10523 mPa s
Viscosity (DMS 2.07 wt. %, 60° C.): 1747 mPa s
Viscosity (DMS 2.07 wt. %, 80° C.): 427 mPa s
Viscosity (DMS 4.87 wt. %, 20° C.): 28720 mPa s
Viscosity (DMS 4.87 wt. %, 40° C.): 3235 mPa s
Viscosity (DMS 4.87 wt. %, 60° C.): 985 mPa s
Viscosity (DMS 4.87 wt. %, 80° C.): 328 mPa s
Structure (SMILES): CSC [Dimethyl Sulfide, dimethyl sulfide]
